Laboratory results taken from PubChem BioAssay AID849 (SRMLSC, 2007).
Calls of active or inactive are those of the source. How the calls were made is not given here.

Each compound was assayed on Saccharomyces cerevisiae lifespan shortening, growth inhibition (assay: Saccharomyces cerevisiae growth inhibition potency – dose response (AID 849);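 further: yeast growth read as optical density after two days at 30 degrees C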).

SMILES	IC50
Cc1cccc(OCCCCc2c(C)n[nH]c2C)c1C	38.1 µM
CCS(=O)(=O)n1nc(-c2ccc(Cl)cc2)nc1SCc1ccccc1	> 100 µM (inactive)
COC(=O)c1ccc(CSc2ccc3nnc(-c4cccc(F)c4)n3n2)o1	> 100 µM (inactive)
CC(=O)n1cc(C(C[N+](=O)[O-])SCCN)c2ccccc21 (stereo unspecified)	8.5 µM
Oc1c(CN2CCc3ccccc3C2)cc(Cl)c2cccnc12	16 µM
COc1ccc(-n2c(Cc3cccn3C)nnc2SCC(=O)N2CCCC2)cc1	> 100 µM (inactive)
COc1ccc(C(=O)C(C)(C)NO)cc1	33.7 µM
O=C(COc1ccccc1)NNC(=S)NC(=O)c1ccc(Cl)cc1Cl	31.6 µM
Cc1cc(C(=O)COC(=O)c2ccc[nH]c2=O)c(C)n1-c1ccc(F)cc1	43 µM
O=[N+]([O-])c1cc(CN2CCCC2)c2cccnc2c1O	> 100 µM (inactive)
COc1cc(OC)c(C2CC(=O)N3CN(C)CSC3=C2C#N)cc1OC (stereo unspecified)	> 100 µM (inactive)
Cc1cccc(/C=C/C(=O)c2cc(Br)ccc(=O)c2O)c1	8.97 µM
COc1ccc(CNC(=O)CSc2nnc(-c3ccc(NC(C)=O)cc3)n2C)cc1	> 100 µM (inactive)
Cc1nc2ccc(C(=O)O)cc2[nH]1	> 100 µM (inactive)
Cc1ccc2nc(/C(C#N)=C\c3ccc([N+](=O)[O-])o3)[nH]c2c1	18.9 µM
Cn1c2ccccc2c2cc(C(=O)O)ccc21	25.4 µM
Cc1nc2cc3ccccc3cc2c(=O)[nH]1	> 100 µM (inactive)
O=C(COc1ccccc1)N1CCN=C1SCc1cccnc1	> 100 µM (inactive)
CCC(C)/C(C)=N/NC(=O)c1ccc(COc2ccc(Cl)c(C)c2)cc1 (stereo unspecified)	21.9 µM
COc1ccccc1OCCN1CSC(=S)N(C)C1	11.8 µM
COc1cc(Br)cc(/C=N/c2ncn[nH]2)c1O	28.8 µM
COc1ccc(-c2cc(-c3ccccc3O)[nH]n2)cc1	> 100 µM (inactive)
Cc1ccc(O)c(C(=O)CC(=O)c2cccc(F)c2)c1	> 100 µM (inactive)

SMILES	IC50
COc1ccccc1C(=O)NNC(=S)NC(=O)c1ccco1	> 100 µM (inactive)
N#C/C(=C\c1ccc([N+](=O)[O-])o1)c1nc2ccccc2[nH]1	> 100 µM (inactive)
O=C(ONC1=NCCCCC1)c1ccc(Cl)cc1	6.15 µM
N/C(Cc1ccc(Cl)cc1)=N\OC(=O)c1cccc2ccccc12	41 µM
CCCCNC(=S)NCc1ccc2c(c1)cc(C)n2C	> 100 µM (inactive)
Cc1ccc(C(=O)O/N=C/c2c(N3CCOCC3)n(C)c3ccccc23)cc1	> 100 µM (inactive)
Cc1ccc2[nH]c3c(c2c1)CCc1cn[nH]c1-3	15.6 µM
CCOC(=O)c1sc(=S)n(-c2cc(F)ccc2F)c1N	> 100 µM (inactive)
O=C1CN(CC(=O)N2CCCCC2)c2ccccc2O1	43.3 µM
CCCc1cc(C(=O)NC2CCCCC2)no1	> 100 µM (inactive)
CCCS(=O)(=O)c1nnnn1-c1cccc(OC)c1	3.4 µM
Clc1ccccc1N/N=C/c1ccc2c(c1)OCO2	32.5 µM
Cc1ccc(-c2[nH]nc(N)c2N=Nc2ccccc2C)cc1	> 100 µM (inactive)
CC1CCCCN1S(=O)(=O)c1coc(C(N)=O)c1 (stereo unspecified)	> 100 µM (inactive)
Oc1ccc(N=Nc2cccc(Cl)c2)cc1C=Nc1ccc(N2CCOCC2)cc1	> 100 µM (inactive)
CCc1ccc(/C=C/C(=O)c2cc(Br)ccc(=O)c2O)cc1	9.89 µM
CCOC(=O)C1=Nc2ccccc2C1=[N+]=[N-]	5.58 µM
CC(Sc1cccc[n+]1[O-])C(=O)Nc1cccc(S(=O)(=O)N2CCOCC2)c1 (stereo unspecified)	6.11 µM
Cc1ccc(N2NC(C)(c3cccs3)NC2=S)cc1 (stereo unspecified)	> 100 µM (inactive)
Oc1ccc2ccccc2c1N=Nc1ccccn1	35.2 µM
O=S(=O)(Nc1ccc(-c2nc3ccccc3o2)cc1)c1ccccc1	> 100 µM (inactive)
CCCC1COC(Cn2cncn2)(c2ccc(C)cc2)O1 (stereo unspecified)	3.94 µM
c1ccc(-c2ccc(OCCCn3cncn3)cc2)cc1	> 100 µM (inactive)
